Marks after values point to notes of the source that are not given here.
Columns and labels:
rats = test: Barnes circular platform test; format: in vivo, rat
Procedure: All rats were anesthetized using 40 mg/kg of pentobarbital (Somnotol; MTC Pharmaceuticals, Cambridge, Ontario) intraperitoneally. Body temperature was maintained at 37° C. Aβ(25-35) (50 nmol in 10 μL of saline) was injected bilaterally into the lateral ventricles. Aβ(25-35) was prepared according to established methods (Sigurdsson, et al. (1997) supra). […] (1997) supra). […] After wound suture, all rats received […] of buprenorphine intramuscularly and were allowed to recover from surgery for 7 days. Learning and memory deficits were assessed using the Barnes circular platform. There are twenty holes evenly located along the border of circular platform with a hidden escape box beneath one of the holes. The circular platform is equipped with colored cues on the surrounding wall. A bright light combined with wind from a fan hung on the ceiling above the platform provides the incentive for the rats to find the hidden box and enter the escape hole. During each trial, the rats were initially placed in the center of the platform under an inverted box, then the box was lifted up and the rat is allowed to find the hole for up to 4 minutes. The latency (time to enter the escape hole) was recorded during the trial. There was a training period (trials 1-14) performed at day −7 to day −1 before surgery (day 0). PDTC or vehicle treatment was given 30 minutes before Aβ(25-35) injections and from days 1 to 7 post-surgery. Spatial memory was then tested on day 8 (trial 15) with the escape hole placed in the same location. Spatial learning was examined by re-testing (re-acquisition) from days 9 to 15 (trials 16-29) with the escape box relocated at […] from the original location. Digital photographs were taken using a light microscope (Leitz Diaplan). […] Also, relative optical density measurements and numbers of stained cells or accumulations were measured in entire brain areas for quantitative analysis and statistically analyzed with ANOVA and Tukey post hoc test with a significance level of P<0.05. […] The staircase data are expressed as the mean±SEM. […] Data are expressed as mean±SEM. […]

Male Wistar rats [1] = test: Quantitative immunohistochemistry: relative optical density and numbers of stained cells or accumulations; format: in vivo, rat; details: Trifusal treatment (brackets)
Procedure: (§1) Male Wistar rats (250 to 300 grams; Charles River, Montreal, Quebec) were divided into 4 groups: intracerebroventricular injections of Aβ(25-35) (BACHEM, Torrance, Calif.); endothelin injections into the right striatum; both Aβ(25-35) and striatal endothelin injections; and sham procedures. The Aβ(25-35) fragment was used to reduce the possibility of rapid coagulation and to allow diffusion of the peptide into the brain.
(§2) All rats were anesthetized using 40 mg/kg of pentobarbital (Somnotol; MTC Pharmaceuticals, Cambridge, Ontario) intraperitoneally. Body temperature was maintained at 37° C. Aβ(25-35) (50 nmol in 10 μL of saline) was injected bilaterally into the lateral ventricles. Aβ(25-35) was prepared according to established methods (Sigurdsson, et al. (1997) supra). Aβ(25-35) (50 nmol in 10 μL of saline at a rate of 1 μL/minute) was injected bilaterally into the lateral ventricles via a stainless-steel cannula (23-gauge; anterior/posterior −0.8, medial/lateral ±1.4, and dorsal/ventral −4.0 below dura). Two endothelin injections (6 pmol in 3 μL of saline), 1 mm apart, were made into the right striatum (Sigurdsson, et al. (1997) supra). Sham procedures involved all the surgical steps without injections of Aβ(25-35) or endothelin. After wound suture, all rats received 40 mg/kg of buprenorphine intramuscularly and were allowed to recover from surgery for 7 days.
(§3) Twenty-one days after surgery, all animals were euthanized via pentobarbital overdose and perfused transaortically first with saline followed by 4% formaldehyde (pH 7.4). The brains were removed and cryoprotected in 30% sucrose for 36 hours at 4° C. Coronal sections (30 pm) were cut using a cryostat.
(§4) Free-floating sections from rat brains (n=5 for each group) were treated with 0.03% hydrogen peroxide and blocked with 3 mL of horse or rabbit serum (VECTASTAIN® Elite, Vector Laboratories, Burlingame, Calif.). The following primary antibodies were diluted in filtered phosphate-buffered saline: APPa4 mouse monoclonal (Chemicon International Inc, Temecula, Calif.; 1:1000), GFAP mouse monoclonal (Sigma-Aldrich, St Louis, Mo.; 1:1000), OX-6 mouse monoclonal (Serotec, Inc., Raleigh, N.C.; 1:1000), Tau-2 mouse monoclonal (Sigma-Aldrich, St Louis, Mo.; 1:10000), NFκB(p65) goat polyclonal (Santa Cruz Biotechnologies, Santa Cruz, Calif.; 1:1000), IL-1β goat polyclonal (Santa Cruz Biotechnologies, Santa Cruz, Calif.; 1:1000), and TNF-α-M18 goat polyclonal (Santa Cruz Biotechnologies, Santa Cruz, Calif.; 1:1000). APP-, Tau-2-, GFAP-, and OX-6-stained sections were incubated with 3 mL of horse biotinylated anti-mouse secondary antibody and horse serum. NFκB(p65), IL-1β, and TNF-α-stained sections were incubated with 3 mL of biotinylated rabbit anti-goat secondary antibody and rabbit serum. Sections were then incubated in 3 mL of avidin-biotin complex followed by 0.05% diaminobenzidine. Sections were washed, air-dried, cleared in xylene, and cover-slipped. Brains to be compared were processed at the same time using the same solutions to reduce variability in immunostaining caused by separate processing.
(§5) Digital photographs were taken using a light microscope (Leitz Diaplan). An investigator was blinded to the identification of the rat sections while analysis was being performed. All immunohistochemical data that were compared was processed at the same time to reduce any variation caused by differences of intensity. A grading scale was based on both observable size and intensity of staining (n=5 for each group). Also, relative optical density measurements and numbers of stained cells or accumulations were measured in entire brain areas for quantitative analysis and statistically analyzed with ANOVA and Tukey post hoc test with a significance level of P<0.05.

Male Wistar rats [2] = test: Immunohistochemistry of rat brain sections, grading scale of staining size and intensity; format: in vivo; parameters: key to Effect of Triflusal on NKκB(p65) immunostaining / Effect of Triflusal on COX-2 immunostaining / Effect of Triflusal on GFAP immunostaining / Effect of Triflusal on OX-6 immunostaining / Effect of Triflusal on APP immunostaining / Effect of Triflusal on Tau-2 immunostaining / Effect of Triflusal on TNFα immunostaining / Effect of Triflusal on Cas-3 immunostaining: −: no effect; ↓: moderate reduction; ↓↓: strong reduction
Procedure: as §1, §2, §3, §4, §5

[3] = Left Hippocampus, Endothelin rats
[4] = Right Hippocampus, Aβ/Endo rats
[5] = Right Hippocampus, Endothelin rats
[6] = Corpus Callosum, Aβ-Endothelin rats
[7] = Hippocampus, Aβ-Endothelin rats
[8] = Hypothalamus, Aβ-Endothelin rats
[9] = Striatum (right), Aβ-Endothelin rats
[10] = Striatum (right), Endothelin rats
[11] = Thalamus (right), Aβ-Endothelin rats
[12] = Thalamus (right), Endothelin rats

S=C(S)N1CCCC1 [PDTC, pyrrolidine dithiocarbamate]
Effect on Aβ(25-35) induced increases in latency (rats; 100 mg/kg 30 minutes before Aβ(25-35) injections and 7 days post-surgery, trial 15 (day 8) vs trial 14 (day −1)): prevented the Aβ(25-35) induced increases in latency | test response (latency) vs Aβ(25-35) group with vehicle treatment (rats; Aβ(25-35) group treated with PDTC, P<0.05, not significantly different from sham groups): significantly less

CC(=O)Oc1cc(C(F)(F)F)ccc1C(=O)O [Triflusal]
APP Accumulation (Male Wistar rats [1]; Left Cortex, Aβ rats): (12.5 ± 2.6)^x | APP Accumulation (Male Wistar rats [1]; Left Cortex, Aβ/Endo rats): 64.5 ± 10.2) | APP Accumulation (Male Wistar rats [1]; Left Cortex, Endothelin rats): (7.3 ± 1.3) | APP Accumulation (Male Wistar rats [1]; Left Cortex, Sham rats): (7.3 ± 2.3) | GFAP Intensity (Male Wistar rats [1]; Left Hippocampus, Aβ rats): (166.8 ± 9.1) | OX6 Intensity (Male Wistar rats [1]; Left Hippocampus, Aβ rats): (109.8 ± 6.8)^a | GFAP Intensity (Male Wistar rats [1]; Left Hippocampus, Aβ/Endo rats): (188.9 ± 4.4) | OX6 Intensity (Male Wistar rats [1]; Left Hippocampus, Aβ/Endo rats): (149.0 ± 7.1) | GFAP Intensity (Male Wistar rats [1]; [3]): (148.8 ± 4.5) | OX6 Intensity (Male Wistar rats [1]; [3]): (106.8 ± 6.4) | GFAP Intensity (Male Wistar rats [1]; Left Hippocampus, Sham rats): (150.8 ± 5.5) | OX6 Intensity (Male Wistar rats [1]; Left Hippocampus, Sham rats): (97.9 ± 2.0) | APP Accumulation (Male Wistar rats [1]; Right Cortex, Aβ rats): (11.0 ± 2.1)^x | APP Accumulation (Male Wistar rats [1]; Right Cortex, Aβ/Endo rats): (85.8 ± 16.1) | APP Accumulation (Male Wistar rats [1]; Right Cortex, Endothelin rats): (13.3 ± 2.1) | APP Accumulation (Male Wistar rats [1]; Right Cortex, Sham rats): (5.0 ± 2.7) | GFAP Intensity (Male Wistar rats [1]; Right Hippocampus, Aβ rats): (164.2 ± 10.1) | OX6 Intensity (Male Wistar rats [1]; Right Hippocampus, Aβ rats): (110.8 ± 4.6)^x | GFAP Intensity (Male Wistar rats [1]; [4]): (188.3 ± 8.2) | OX6 Intensity (Male Wistar rats [1]; [4]): (149.4 ± 7.4)^x | GFAP Intensity (Male Wistar rats [1]; [5]): (150.1 ± 3.6)^x | OX6 Intensity (Male Wistar rats [1]; [5]): (97.3 ± 4.5)^x | GFAP Intensity (Male Wistar rats [1]; Right Hippocampus, Sham rats): (152.5 ± 7.9) | OX6 Intensity (Male Wistar rats [1]; Right Hippocampus, Sham rats): (93.4 ± 1.4) | Effect of Triflusal on APP immunostaining (Male Wistar rats [2]; Corpus Callosum, Aβ rats): ↓↓ | Effect of Triflusal on COX-2 immunostaining (Male Wistar rats [2]; Corpus Callosum, Aβ rats): ↓↓ | Effect of Triflusal on GFAP immunostaining (Male Wistar rats [2]; Corpus Callosum, Aβ rats): ↓↓ | Effect of Triflusal on NKκB(p65) immunostaining (Male Wistar rats [2]; Corpus Callosum, Aβ rats): ↓↓ | Effect of Triflusal on OX-6 immunostaining (Male Wistar rats [2]; Corpus Callosum, Aβ rats): ↓↓ | Effect of Triflusal on TNFα immunostaining (Male Wistar rats [2]; Corpus Callosum, Aβ rats): ↓↓ | Effect of Triflusal on Tau-2 immunostaining (Male Wistar rats [2]; Corpus Callosum, Aβ rats): ↓↓ | Effect of Triflusal on APP immunostaining (Male Wistar rats [2]; [6]): − | Effect of Triflusal on COX-2 immunostaining (Male Wistar rats [2]; [6]): ↓ | Effect of Triflusal on GFAP immunostaining (Male Wistar rats [2]; [6]): − | Effect of Triflusal on NKκB(p65) immunostaining (Male Wistar rats [2]; [6]): ↓ | Effect of Triflusal on OX-6 immunostaining (Male Wistar rats [2]; [6]): ↓ | Effect of Triflusal on TNFα immunostaining (Male Wistar rats [2]; [6]): − | Effect of Triflusal on Tau-2 immunostaining (Male Wistar rats [2]; [6]): − | Effect of Triflusal on GFAP immunostaining (Male Wistar rats [2]; Corpus Callosum, Endothelin rats): − | Effect of Triflusal on APP immunostaining (Male Wistar rats [2]; Cortex, Aβ rats): ↓↓ | Effect of Triflusal on COX-2 immunostaining (Male Wistar rats [2]; Cortex, Aβ rats): ↓↓ | Effect of Triflusal on GFAP immunostaining (Male Wistar rats [2]; Cortex, Aβ rats): − | Effect of Triflusal on NKκB(p65) immunostaining (Male Wistar rats [2]; Cortex, Aβ rats): ↓ | Effect of Triflusal on OX-6 immunostaining (Male Wistar rats [2]; Cortex, Aβ rats): ↓ | Effect of Triflusal on TNFα immunostaining (Male Wistar rats [2]; Cortex, Aβ rats): ↓ | Effect of Triflusal on Tau-2 immunostaining (Male Wistar rats [2]; Cortex, Aβ rats): ↓↓ | Effect of Triflusal on APP immunostaining (Male Wistar rats [2]; Cortex, Aβ-Endothelin rats): − | Effect of Triflusal on COX-2 immunostaining (Male Wistar rats [2]; Cortex, Aβ-Endothelin rats): ↓ | Effect of Triflusal on GFAP immunostaining (Male Wistar rats [2]; Cortex, Aβ-Endothelin rats): − | Effect of Triflusal on NKκB(p65) immunostaining (Male Wistar rats [2]; Cortex, Aβ-Endothelin rats): − | Effect of Triflusal on OX-6 immunostaining (Male Wistar rats [2]; Cortex, Aβ-Endothelin rats): − | Effect of Triflusal on TNFα immunostaining (Male Wistar rats [2]; Cortex, Aβ-Endothelin rats): ↓ | Effect of Triflusal on Tau-2 immunostaining (Male Wistar rats [2]; Cortex, Aβ-Endothelin rats): − | Effect of Triflusal on GFAP immunostaining (Male Wistar rats [2]; Cortex, Endothelin rats): − | Effect of Triflusal on APP immunostaining (Male Wistar rats [2]; Hippocampus, Aβ rats): ↓ | Effect of Triflusal on COX-2 immunostaining (Male Wistar rats [2]; Hippocampus, Aβ rats): ↓ | Effect of Triflusal on GFAP immunostaining (Male Wistar rats [2]; Hippocampus, Aβ rats): − | Effect of Triflusal on NKκB(p65) immunostaining (Male Wistar rats [2]; Hippocampus, Aβ rats): ↓ | Effect of Triflusal on OX-6 immunostaining (Male Wistar rats [2]; Hippocampus, Aβ rats): ↓ | Effect of Triflusal on Tau-2 immunostaining (Male Wistar rats [2]; Hippocampus, Aβ rats): ↓ | Effect of Triflusal on APP immunostaining (Male Wistar rats [2]; [7]): − | Effect of Triflusal on COX-2 immunostaining (Male Wistar rats [2]; [7]): − | Effect of Triflusal on GFAP immunostaining (Male Wistar rats [2]; [7]): − | Effect of Triflusal on NKκB(p65) immunostaining (Male Wistar rats [2]; [7]): − | Effect of Triflusal on OX-6 immunostaining (Male Wistar rats [2]; [7]): − | Effect of Triflusal on Tau-2 immunostaining (Male Wistar rats [2]; [7]): − | Effect of Triflusal on GFAP immunostaining (Male Wistar rats [2]; Hippocampus, Endothelin rats): − | Effect of Triflusal on APP immunostaining (Male Wistar rats [2]; Hypothalamus, Aβ rats): ↓ | Effect of Triflusal on NKκB(p65) immunostaining (Male Wistar rats [2]; Hypothalamus, Aβ rats): ↓↓ | Effect of Triflusal on TNFα immunostaining (Male Wistar rats [2]; Hypothalamus, Aβ rats): ↓↓ | Effect of Triflusal on APP immunostaining (Male Wistar rats [2]; [8]): − | Effect of Triflusal on NKκB(p65) immunostaining (Male Wistar rats [2]; [8]): ↓ | Effect of Triflusal on TNFα immunostaining (Male Wistar rats [2]; [8]): ↓ | Effect of Triflusal on GFAP immunostaining (Male Wistar rats [2]; Striatum (right), Aβ rats): − | Effect of Triflusal on APP immunostaining (Male Wistar rats [2]; [9]): ↓ | Effect of Triflusal on COX-2 immunostaining (Male Wistar rats [2]; [9]): ↓ | Effect of Triflusal on GFAP immunostaining (Male Wistar rats [2]; [9]): − | Effect of Triflusal on NKκB(p65) immunostaining (Male Wistar rats [2]; [9]): ↓ | Effect of Triflusal on OX-6 immunostaining (Male Wistar rats [2]; [9]): ↓ | Effect of Triflusal on TNFα immunostaining (Male Wistar rats [2]; [9]): ↓ | Effect of Triflusal on APP immunostaining (Male Wistar rats [2]; [10]): ↓↓ | Effect of Triflusal on COX-2 immunostaining (Male Wistar rats [2]; [10]): ↓↓ | Effect of Triflusal on Cas-3 immunostaining (Male Wistar rats [2]; [10]): ↓ | Effect of Triflusal on GFAP immunostaining (Male Wistar rats [2]; [10]): − | Effect of Triflusal on NKκB(p65) immunostaining (Male Wistar rats [2]; [10]): ↓ | Effect of Triflusal on OX-6 immunostaining (Male Wistar rats [2]; [10]): ↓↓ | Effect of Triflusal on TNFα immunostaining (Male Wistar rats [2]; [10]): ↓ | Effect of Triflusal on OX-6 immunostaining (Male Wistar rats [2]; Thalamus (right), Aβ rats): − | Effect of Triflusal on TNFα immunostaining (Male Wistar rats [2]; Thalamus (right), Aβ rats): − | Effect of Triflusal on OX-6 immunostaining (Male Wistar rats [2]; [11]): − | Effect of Triflusal on TNFα immunostaining (Male Wistar rats [2]; [11]): − | Effect of Triflusal on OX-6 immunostaining (Male Wistar rats [2]; [12]): − | Effect of Triflusal on TNFα immunostaining (Male Wistar rats [2]; [12]): −
